Data as given in ChEMBL document CHEMBL5335851, “Total Synthesis, Structure Reassignment, and Biological Evaluation of the Anti-Inflammatory Macrolactone 13-Hydroxy-14-deoxyoxacyclododecindione” (J Nat Prod, 2024).

What follows are molecules tested against T1, Signal transducer and activator of transcription 6 (Homo sapiens, UniProt P42226) (assay: Inhibition of IL-4 induced STAT6 signaling in human HepG2 cells harboring pRL-EF1alpha, pGL3-TK-7xN4 and TOPO-Stat6 plasmid assessed as luciferase activity incubated for 24 hrs).
T1 sequence (P42226 whole entry): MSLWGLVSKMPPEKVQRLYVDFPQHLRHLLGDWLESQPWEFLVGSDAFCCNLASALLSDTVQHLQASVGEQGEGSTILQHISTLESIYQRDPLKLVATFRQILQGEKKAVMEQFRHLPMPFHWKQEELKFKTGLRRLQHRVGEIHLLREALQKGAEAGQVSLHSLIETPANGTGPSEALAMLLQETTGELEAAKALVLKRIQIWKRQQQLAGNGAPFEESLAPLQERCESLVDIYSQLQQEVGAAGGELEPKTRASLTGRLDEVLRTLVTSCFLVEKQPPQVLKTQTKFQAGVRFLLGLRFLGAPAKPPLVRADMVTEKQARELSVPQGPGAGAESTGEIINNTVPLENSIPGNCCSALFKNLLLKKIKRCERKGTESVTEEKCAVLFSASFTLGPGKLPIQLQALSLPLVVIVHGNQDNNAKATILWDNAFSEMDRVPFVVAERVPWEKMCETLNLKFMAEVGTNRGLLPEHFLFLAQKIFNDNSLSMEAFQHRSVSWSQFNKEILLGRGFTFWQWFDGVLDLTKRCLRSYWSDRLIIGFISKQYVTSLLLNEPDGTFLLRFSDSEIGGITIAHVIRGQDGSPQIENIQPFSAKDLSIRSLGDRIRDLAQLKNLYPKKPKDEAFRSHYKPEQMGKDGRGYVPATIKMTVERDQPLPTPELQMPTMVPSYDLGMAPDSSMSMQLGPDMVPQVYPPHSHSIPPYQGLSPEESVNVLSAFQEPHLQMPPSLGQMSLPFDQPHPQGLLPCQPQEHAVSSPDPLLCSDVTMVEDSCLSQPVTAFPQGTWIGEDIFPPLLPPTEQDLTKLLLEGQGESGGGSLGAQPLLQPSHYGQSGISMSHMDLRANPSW
Format: cell-based

| IC50 [nM] | SMILES |
| --- | --- |
| 68 | C/C1=C\CCC(C)(O)C(C)OC(=O)Cc2c(Cl)c(O)cc(O)c2C1=O (centres undefined) |
| 56 | C/C1=C\C[C@@H](O)[C@H](C)[C@@H](C)OC(=O)Cc2c(Cl)c(O)cc(O)c2C1=O |
| 79 | C/C1=C\CCC(C)(C)C(C)OC(=O)Cc2c(Cl)c(O)cc(O)c2C1=O (centres undefined) |
| 20 | C/C1=C\CC[C@H](C)[C@@H](C)OC(=O)Cc2c(Cl)c(O)cc(O)c2C1=O |

What follows are molecules tested against Mothers against decapentaplegic homolog 2/homolog 3 (Homo sapiens, UniProt P84022+Q15796) (assay: Inhibition of TGF-beta induced Smad2/3 signaling in human HepG2 cells harboring pRL-EF1alpha, (CAGA)9x-MLP-Luc plasmid assessed as luciferase activity incubated for 24 hrs).
Format: cell-based

| IC50 [nM] | SMILES |
| --- | --- |
| 240 | C/C1=C\C[C@@H](O)[C@H](C)[C@H](C)OC(=O)Cc2c(Cl)c(O)cc(O)c2C1=O |
| 100 | C/C1=C/C[C@@H](O)[C@H](C)[C@@H](C)OC(=O)Cc2c(Cl)c(O)cc(O)c2C1=O |
| 68 | C/C1=C\C[C@H](O)[C@H](C)[C@@H](C)OC(=O)Cc2c(Cl)c(O)cc(O)c2C1=O |
| 140 | C/C1=C\C[C@H](O)[C@H](C)[C@H](C)OC(=O)Cc2c(Cl)c(O)cc(O)c2C1=O |
| 68 | C/C1=C/C[C@H](O)[C@H](C)[C@@H](C)OC(=O)Cc2c(Cl)c(O)cc(O)c2C1=O |
